Converted amounts (≈) assume the structure as drawn.
The compounds below were run on Mycobacterium tuberculosis (assay: Antimycobacterial activity against isoniazid-resistant Mycobacterium tuberculosis by broth dilution assay).
Assay type: functional
With `COc1cc(C2=NN(C(N)=S)C(Cc3ccccc3)C2)ccc1OCC(=O)O` (configuration not stated) the MIC was 6.25 µg/mL (≈ 15.6 µM).
Work on `COc1cc(C2=NN(C(N)=S)C(c3ccccc3O)C2)ccc1OCC(=O)O` (configuration not stated) yielded an MIC of 0.58 µg/mL (≈ 1.44 µM).
`COc1cc(C2=NN(C(N)=O)C(c3ccccc3)C2)ccc1OCC(=O)O` (configuration not stated) showed an MIC of 6.12 µg/mL (≈ 16.6 µM).
With `COc1cc(C2=NN(C(N)=O)C(c3ccc(C)cc3)C2)ccc1OCC(=O)O` (configuration not stated) the MIC was 6.25 µg/mL (≈ 16.3 µM).
Work on `COc1cc(C2=NN(C(N)=S)C(c3ccc(O)cc3)C2)ccc1OCC(=O)O` (configuration not stated) yielded an MIC of 0.2 µg/mL (≈ 0.498 µM).
`COc1cc(C2=NN(C(N)=O)C(c3ccccc3Cl)C2)ccc1OCC(=O)O` (configuration not stated) was tested, and the MIC was 1.26 µg/mL (≈ 3.12 µM).
`COc1cc(C2=NN(C(N)=O)C(c3ccc(N)cc3)C2)ccc1OCC(=O)O` (configuration not stated) was tested, and the MIC was 5.42 µg/mL (≈ 14.1 µM).
In the case of `COc1cc(C2=NN(C(N)=S)C(c3ccc(C)cc3)C2)ccc1OCC(=O)O` (configuration not stated), the MIC is reported as 6.15 µg/mL (≈ 15.4 µM).
With `COc1cc(C2=NN(C(N)=S)C(c3ccc(Cl)cc3)C2)ccc1OCC(=O)O` (configuration not stated) the MIC was 0.06 µg/mL (≈ 0.143 µM).
In the case of `COc1cc(C2=NN(C(N)=S)C(c3ccccc3Cl)C2)ccc1OCC(=O)O` (configuration not stated), the MIC is reported as 0.12 µg/mL (≈ 0.286 µM).
In the case of `COc1cc(C2=NN(C(N)=O)C(c3ccc(F)cc3)C2)ccc1OCC(=O)O` (configuration not stated), the MIC is reported as 3.25 µg/mL (≈ 8.39 µM).
`COc1cc(C2=NN(C(N)=O)C(c3ccc(Cl)cc3)C2)ccc1OCC(=O)O` (configuration not stated) showed an MIC of 0.13 µg/mL (≈ 0.322 µM).
`COc1cc(C2=NN(C(N)=O)C(Cc3ccccc3)C2)ccc1OCC(=O)O` (configuration not stated) showed an MIC of 6.25 µg/mL (≈ 16.3 µM).
`COc1cc(C2=NN(C(N)=S)C(c3ccc(N)cc3)C2)ccc1OCC(=O)O` (configuration not stated) gave an MIC of 12.5 µg/mL (≈ 31.2 µM).
For `COc1cc(C2=NN(C(N)=S)C(c3cccc([N+](=O)[O-])c3)C2)ccc1OCC(=O)O` (configuration not stated), the MIC was 3.12 µg/mL (≈ 7.25 µM).
For `COc1cc(C2=NN(C(N)=S)C(c3ccccc3)C2)ccc1OCC(=O)O` (configuration not stated), the MIC was 6.25 µg/mL (≈ 16.2 µM).
Compound `COc1cc(C2=NN(C(N)=O)C(c3ccccc3O)C2)ccc1OCC(=O)O` (configuration not stated) has an MIC of 0.58 µg/mL (≈ 1.51 µM).
Work on `COc1cc(C2=NN(C(N)=O)C(c3cccc([N+](=O)[O-])c3)C2)ccc1OCC(=O)O` (configuration not stated) yielded an MIC of 6.25 µg/mL (≈ 15.1 µM).
Work on `COc1cc(C2=NN(C(N)=S)C(c3ccc(F)cc3)C2)ccc1OCC(=O)O` (configuration not stated) yielded an MIC of 0.96 µg/mL (≈ 2.38 µM).
In the case of `COc1cc(C2=NN(C(N)=O)C(c3ccc(O)cc3)C2)ccc1OCC(=O)O` (configuration not stated), the MIC is reported as 1.23 µg/mL (≈ 3.19 µM).
`COc1cc(C2=NN(C(N)=O)C(c3ccc([N+](=O)[O-])cc3)C2)ccc1OCC(=O)O` (configuration not stated) was tested, and the MIC was 6.25 µg/mL (≈ 15.1 µM).
`COc1cc(C2=NN(C(N)=S)C(c3ccc([N+](=O)[O-])cc3)C2)ccc1OCC(=O)O` (configuration not stated) gave an MIC of 6.25 µg/mL (≈ 14.5 µM).

Reference: ChEMBL document CHEMBL1146385, “Discovery of novel phenoxyacetic acid derivatives as antimycobacterial agents” (2007)
